Patent US20240173440A1, “HIGH PURITY COPPER RADIOPHARMACEUTICAL COMPOSITIONS AND DIAGNOSTIC AND THERAPEUTIC USES THEREOF” (Nuclidium AG, priority 2022, published 2024)

Columns and labels:
[1] = Lipophilicity, log D by shake-flask method (1-octanol/PBS pH 7.4); type: physicochemical; settings: shake-flask, Table 17, mean ± SD
How it was run: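 Radiotracer shaken 30 min in pre-saturated 1-octanol/PBS pH 7.4 (1:1), then centrifuged for phase separation. Radioactivity in each phase measured by gamma counting; log D reported as the average log of organic/PBS activity ratio.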

LNCaP cells = experiment: In vitro cellular uptake (cell surface and internalized fractions) in LNCaP cells; type: cell-based
Procedure: The cellular uptake was studied in vitro using intact cells seeded in 6-well plates overnight. On the day of the experiment, the cells were washed and incubated with each of the exemplified [^61Cu]Cu-radiotracer at different time points, either alone or in the presence of a blocking agent to distinguish between specific and non-specific uptake. At each investigated time point, the medium containing the unbound (free) radiotracer was removed, followed by two washing steps with ice-cold phosphate-buffered saline. The cells were then treated 2×5 min with ice-cold glycine solution (0.05 M, pH 2.8) to detach the cell surface-bound radiotracer (acid released). Afterwards, the cells containing the internalized radiotracer were detached with 1 M NaOH at 37° C. and collected for measurement. The amount of specific cell surface-bound and internalized radiotracer is expressed as percentage of the total applied activity, after subtracting the non-specific values.
2-(phosphonomethyl)-pentanedioic acid (2-PMPA, 10 μM) was used to determine non-specific binding (FIG. 14).
Cellular uptake and distribution between cell surface (cell membrane bound) and internalized fractions of ^61Cu-labeled PSMA-I&T constructs versus their ^68Ga counterparts (Table 19). The values are expressed as % of the applied activity and refer to the specific uptake calculated after subtracting the non-specific values (measured in the presence of 10 μM 2-PMPA) from the total values (specific=total−non specific).

With `O=C(O)CC[C@H](NC(=O)N[C@@H](CCCCNC(=O)CCCCCCC(=O)NCCCC[C@@H](NC(=O)[C@@H](Cc1ccccc1)NC(=O)[C@@H](Cc1ccc(O)c(I)c1)NC(=O)CC[C@H](C(=O)O)N1CCN2CCN(CC1)CC(=O)[O][61Cu][O]C(=O)C2)C(=O)O)C(=O)O)C(=O)O` [[^61Cu]Cu-NODAGA-PSMA-I&T] the “log D(O/PBS pH 7.4)” value [1] was −2.95±0.08, the Cell surface fraction (LNCaP cells; 5 min, specific uptake) was 4.3 ± 0.7 % of the applied activity and the Internalized fraction (LNCaP cells; 5 min, specific uptake) was 1.2 ± 0.2 % of the applied activity. The Cell surface fraction (LNCaP cells; 15 min, specific uptake) was 8.2 ± 1.0 % of the applied activity, the Internalized fraction (LNCaP cells; 15 min, specific uptake) was 3.9 ± 0.4 % of the applied activity and the Cell surface fraction (LNCaP cells; 30 min, specific uptake) was 10.7 ± 1.0 % of the applied activity. For the same compound, the Internalized fraction (LNCaP cells; 30 min, specific uptake) was 7.0 ± 1.1 % of the applied activity, the Cell surface fraction (LNCaP cells; 60 min, specific uptake) was 10.8 ± 1.8 % of the applied activity and the Internalized fraction (LNCaP cells; 60 min, specific uptake) was 11.7 ± 1.6 % of the applied activity. For the same compound, the Cell surface fraction (LNCaP cells; 120 min, specific uptake) was 10.2 ± 1.8 % of the applied activity, the Internalized fraction (LNCaP cells; 120 min, specific uptake) was 17.6 ± 2.8 % of the applied activity and the Internalized fraction (LNCaP cells; after 1 h at 37° C.) was 12±1.9%. The “cellular uptake in vitro” value (LNCaP cells; after 1 h at 37° C.) was 26.6±0.9%, the PSMA-mediated cellular uptake (LNCaP cells; after 2h at 37° C.) was “approx. 35%” and the “part of the cellular uptake being internalized” value (LNCaP cells; after 2h at 37° C.) was 50-60%.
